According to patent US6710075B2, “Therapeutic compounds and methods” (The Government of the State of Sarawak, Malaysia, priority 2000, dated 2004):
Where two headings read alike, the source gives them in different places.

Key:
[1] = system: Intercellular Adhesion Molecule-1 (ICAM-1); test: IL-1-induced ICAM-1 surface expression by A549 cells (Delfia); format: cell-based, human; settings: 24 hours, read-out: IC50 ICAM-1 Production
From the text: (§1) (a) Compounds A and B were identified from a bark sample of Aglaia leptantha through their ability to inhibit production of Tumour Necrosis Factor-α (TNF-α) by THP-1 human promonocytic leukemia cells (Tsuchiya, et al, Int. J. Cancer, 1980, 26(2):171-6) activated with lipopolysaccharide (LPS). Table 4 summarises the results comparing the activity of Compounds A and B for inhibition of TNF-α production to their effects on general cell metabolism measured using WST-1 reduction, DNA synthesis and protein synthesis assays for THP-1 cells. […] For comparison, the effects of Compounds A and B on A549 lung epithelial carcinoma cells (Leiber et al, Int. J. Cancer, 1976, 17(1)-62-70) were also measured and the data is also included in Table 4.

A549 cells [2] = test: DNA synthesis, [14C]-thymidine uptake, A549 cells; format: cell-based, human; settings: Homo sapiens, A549, 72 h
From the text: as §1

786-0 = test: NCI in vitro anticancer drug discovery screen (sulforhodamine B); format: cell-based; settings: Homo sapiens; for CC50: 786-0, 48 h, read-out: LC50 (the source's name)
Procedure: (§2) (c) Testing of Compound A against a much larger cell line panel in the NCI in vitro anticancer screen (Table 7) confirmed the results described above. […] Consistent with the data in Table 5 the cytotoxic effects measured after 2 days of culture were more varied with LC50 values ranging from 10 nM for COLO-205 colon tumour cells to ˜90 μM for 786-0 renal tumour cells.

A498 = test: as above; format: cell-based; settings: Homo sapiens, A498, renal, 48 hr
Procedure: as §2

ACHN = test: as above; format: cell-based; settings: Homo sapiens, renal, 48 hr
Procedure: as §2

EKVX = test: as above; format: cell-based; settings: Homo sapiens, lung, 48 hr
Procedure: as §2

HT29 = test: as above; format: cell-based; settings: Homo sapiens, HT-29, HT29, colon, 48 hr
Procedure: as §2

LOX IMV1 = test: as above; format: cell-based; settings: Homo sapiens, LOX IMV1, melanoma, 48 hr
Procedure: as §2

MALME-3M = test: as above; format: cell-based; settings: Homo sapiens, melanoma, 48 hr
Procedure: as §2

MCF7 = test: as above; format: cell-based; settings: Homo sapiens, MCF7, breast, 48 hr
Procedure: as §2

MDA-MB-435 = test: as above; format: cell-based; settings: Homo sapiens, MDA-MB-435, breast, 48 hr
Procedure: as §2

NCI-11522 = test: as above; format: cell-based; settings: Homo sapiens, NCI-11522, lung, 48 hr
Procedure: as §2

NCI-H226 = test: as above; format: cell-based; settings: Homo sapiens, NCI-H226, lung, 48 hr
Procedure: as §2

NCI-H460 = test: as above; format: cell-based; settings: Homo sapiens, NCI-H460, lung, 48 hr
Procedure: as §2

OVCAR-4 = test: as above; format: cell-based; settings: Homo sapiens, OVCAR-4, ovarian, 48 hr
Procedure: as §2

OVCAR-5 = test: as above; format: cell-based; settings: Homo sapiens, OVCAR-5, ovarian, 48 hr
Procedure: as §2

RXF 393 = test: as above; format: cell-based; settings: Homo sapiens, RXF 393, renal, 48 hr
Procedure: as §2

SF-268 = test: as above; format: cell-based; settings: Homo sapiens, SF-268, brain, 48 hr
Procedure: as §2

SF-295 = test: as above; format: cell-based; settings: Homo sapiens, SF-295, brain, 48 hr
Procedure: as §2

SF-539 = test: as above; format: cell-based; settings: Homo sapiens, SF-539, brain, 48 hr
Procedure: as §2

SK-MEL-2 = test: as above; format: cell-based; settings: Homo sapiens, SK-MEL-2, melanoma, 48 hr
Procedure: as §2

SK-OV-3 = test: as above; format: cell-based; settings: Homo sapiens, SK-OV-3, ovarian, 48 hr
Procedure: as §2

SNB-75 = test: as above; format: cell-based; settings: Homo sapiens, SNB-75, brain, 48 hr
Procedure: as §2

A549 cells [3] = test: Effect on cell cycle arrest and cell death induced by anti-cancer agents, DNA content analysis; format: cell-based
Procedure: A549 cells in 6 well plates were cultured for 3 days in the presence or absence of 10 nM Compound A together with 0.1 μM camptothecin, 10 μM vinblastin, 1 μM paclitaxel or 1 μM staurosporine as indicated. The cells were then collected and fixed in 70% ethanol prior to staining with propidium iodide and DNA content determined by flow cytometry. The numbers indicate the % of cells in the various cell cycle phases relative to all cells with ≧2N DNA content and also the % dead cells (ie. subdiploid ≦2N cells) to the left of the dotted marker that arose during the culture period.
This was examined in more detail using DNA content analysis to specifically measure cell cycle progression and cell death. In this experiment in addition to camptothecin and paclitaxel cells were also treated with vinblastin (another microtubule inhibitor) (Sorger et al., 1997, supra) and staurosporine (a kinase inhibitor) (Gescher, Crit Rev Oncol Hematol., 2000, 34(2):127-35).

[4] = read-out: LC50 (the source's name)

COC(=O)[C@H]1[C@@H](O)[C@@]2(O)c3c(OC)cc(OC4OC(C(O)CO)COC4OC)cc3O[C@@]2(c2ccc(OC)cc2)[C@@H]1c1ccccc1 (single isomer, unassigned) [Compound A]
IC50 [1]: 2000 nM | IC50 (A549 cells [2]): 7 nM | CC50 (786-0; 786-0, renal, 48 hr): 91200 nM | CC50 (786-0; 786-0 renal tumour cells, 2 days of culture): ~90000 nM | GI50 (786-0; 786-0, renal, 48 hr): < 10 nM | GI50 (A498): < 10 nM | CC50 (A498; [4]): 18600 nM | GI50 (ACHN): < 10 nM | CC50 (ACHN; [4]): 31600 nM | GI50 (EKVX): < 10 nM | CC50 (EKVX; [4]): 23 nM | GI50 (HT29): < 10 nM | CC50 (HT29; [4]): 1000 nM | GI50 (LOX IMV1): < 10 nM | CC50 (LOX IMV1; [4]): 1000 nM | GI50 (MALME-3M): < 10 nM | CC50 (MALME-3M; [4]): 24000 nM | GI50 (MCF7): < 10 nM | CC50 (MCF7; [4]): 1000 nM | GI50 (MDA-MB-435): < 10 nM | CC50 (MDA-MB-435; [4]): 45 nM | GI50 (NCI-11522): < 10 nM | CC50 (NCI-11522; [4]): 2400 nM | GI50 (NCI-H226): < 10 nM | CC50 (NCI-H226; [4]): 193 nM | GI50 (NCI-H460): < 10 nM | CC50 (NCI-H460; [4]): 38000 nM | GI50 (OVCAR-4): < 10 nM | CC50 (OVCAR-4; [4]): 11 nM | GI50 (OVCAR-5): < 10 nM | CC50 (OVCAR-5; [4]): 1000 nM | GI50 (RXF 393): < 10 nM | CC50 (RXF 393; [4]): 1640 nM | GI50 (SF-268): < 10 nM | CC50 (SF-268; [4]): 1000 nM | GI50 (SF-295): < 10 nM | CC50 (SF-295; [4]): 1230 nM | GI50 (SF-539): < 10 nM | CC50 (SF-539; [4]): 1100 nM | GI50 (SK-MEL-2): < 10 nM | CC50 (SK-MEL-2; [4]): 19100 nM | GI50 (SK-OV-3): < 10 nM | CC50 (SK-OV-3; [4]): 82200 nM | GI50 (SNB-75): < 10 nM | CC50 (SNB-75; [4]): 54 nM | cell cycle distribution and cell death (A549 cells [3]; A549, 10 nM Compound A alone, three days): a minor decrease in cells in G0/G1 with a slight increase in G2/M phase cells with no detectable increase in cell death | effect on cytotoxicity of staurosporine (A549 cells [3]; A549, 10 nM Compound A with 1 μM staurosporine, 3 days): little effect on the cytotoxic effects of staurosporine | effect on cell cycle arrest and cytotoxicity of camptothecin, vinblastin and paclitaxel (A549 cells [3]; A549, 10 nM Compound A, 3 days): prevented their characteristic cell cycle arrest and significantly inhibited their cytotoxic effects
